Experimental data reported in ChEMBL document CHEMBL6153077, “Design, synthesis, and anti-liver fibrosis activity of novel non-steroidal vitamin D receptor agonists based on open-ring steroid scaffold” (Eur J Med Chem, 2025).
Active and inactive are the calls of the source. The rule behind the calls is not given here.

How the values were obtained:
[1] = target: T1, Vitamin D3 receptor (Homo sapiens) (UniProt P11473); experiment: Binding affinity to full-length VDR (unknown origin) at 1 uM by fluorescence polarization assay relative to control
T1 sequence (whole entry): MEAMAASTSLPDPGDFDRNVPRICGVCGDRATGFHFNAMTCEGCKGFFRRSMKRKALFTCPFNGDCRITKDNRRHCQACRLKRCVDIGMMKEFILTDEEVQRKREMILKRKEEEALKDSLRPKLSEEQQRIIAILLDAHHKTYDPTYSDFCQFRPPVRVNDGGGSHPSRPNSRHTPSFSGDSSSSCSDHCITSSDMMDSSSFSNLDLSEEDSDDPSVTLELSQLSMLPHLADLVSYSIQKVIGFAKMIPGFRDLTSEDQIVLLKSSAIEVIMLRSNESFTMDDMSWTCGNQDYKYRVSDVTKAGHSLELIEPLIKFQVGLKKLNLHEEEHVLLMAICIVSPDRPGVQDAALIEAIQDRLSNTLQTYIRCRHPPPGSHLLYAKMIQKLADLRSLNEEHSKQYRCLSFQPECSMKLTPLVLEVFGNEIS

[2] = target: T1, Vitamin D3 receptor (Homo sapiens); experiment: Agonist activity at VDR in human LX2 cells assessed as increase in CYP24A1 level at 0.5 uM by qRT-PCR analysis; format: cell-based; details: filed as agonist
LX-2 [3] = experiment: Inhibition of HSC activation in TGF-beta1-treated human LX2 cells assessed as decrease in collagen-I level at 0.5 uM incubated for 24 hrs by Western blot analysis; format: functional, cell-based
LX-2 [4] = experiment: Inhibition of HSC activation in TGF-beta1-treated human LX2 cells assessed as decrease in alpha-SMA level at 0.5 uM incubated for 24 hrs by Western blot analysis; format: functional, cell-based
LX-2 [5] = experiment: Inhibition of HSC activation in TGF-beta1-treated human LX2 cells assessed as decrease in COL1A1 mRNA level at 0.5 uM incubated for 24 hrs by qPCR analysis; format: functional, cell-based
LX-2 [6] = experiment: Inhibition of HSC activation in TGF-beta1-treated human LX2 cells assessed as decrease in ACTA2 mRNA level at 0.5 uM incubated for 24 hrs by qPCR analysis; format: functional, cell-based
[7] = target: T1, Vitamin D3 receptor (Homo sapiens); experiment: Agonist activity at human VDR in HEK293 cells co-expressing 3-Luc/RXRalpha assessed as transcriptional activity at 0.5 uM by dual luciferase reporter assay; format: cell-based; details: filed as agonist
Mus musculus [8] = experiment: Anti-fibrotic activity in CCl4-induced hepatic fibrosis C57BL/6 mouse model assessed as reduction in hepatic lesion in liver at 500 ug/kg, po administered daily for 2 weeks by H and E/Masson's trichrome staining based analysis; format: functional, organism-based
Mus musculus [9] = experiment: Anti-fibrotic activity in CCl4-induced hepatic fibrosis C57BL/6 mouse model assessed as reduction in IL-1beta level in liver at 500 ug/kg, po administered daily for 2 weeks by ELISA; format: functional, organism-based
Mus musculus [10] = experiment: Anti-fibrotic activity in CCl4-induced hepatic fibrosis C57BL/6 mouse model assessed as reduction in TBA level at 500 ug/kg, po administered daily for 2 weeks; format: functional, organism-based
LX-2 [11] = experiment: Inhibition of HSC activation in TGF-beta1-treated human LX2 cells harboring VDR siRNA assessed as decrease in collagen-I level at 0.5 uM incubated for 24 hrs by Western blot analysis; format: functional, cell-based
LX-2 [12] = experiment: Inhibition of HSC activation in TGF-beta1-treated human LX2 cells harboring VDR siRNA assessed as decrease in alpha-SMA level at 0.5 uM incubated for 24 hrs by Western blot analysis; format: functional, cell-based
Mus musculus [13] = experiment: Anti-fibrotic activity in CCl4-induced hepatic fibrosis C57BL/6 mouse model assessed as prevention of serum calcium level elevation at 500 ug/kg, po administered daily for 2 weeks; format: functional, organism-based
Mus musculus [14] = experiment: Anti-fibrotic activity in CCl4-induced hepatic fibrosis C57BL/6 mouse model assessed as increase in IL-10 level in liver at 500 ug/kg, po administered daily for 2 weeks by ELISA; format: functional, organism-based
Mus musculus [15] = experiment: Anti-fibrotic activity in CCl4-induced hepatic fibrosis C57BL/6 mouse model assessed as reduction in AST level at 500 ug/kg, po administered daily for 2 weeks; format: functional, organism-based
Mus musculus [16] = experiment: Anti-fibrotic activity in CCl4-induced hepatic fibrosis C57BL/6 mouse model assessed as decrease in Timp-1 mRNA level in liver at 500 ug/kg, po administered daily for 2 weeks by qPCR analysis; format: functional, organism-based
Mus musculus [17] = experiment: Anti-fibrotic activity in CCl4-induced hepatic fibrosis C57BL/6 mouse model assessed as reduction in collagen deposition in liver at 500 ug/kg, po administered daily for 2 weeks by H and E/Masson's trichrome staining based analysis; format: functional, organism-based
Mus musculus [18] = experiment: Anti-fibrotic activity in CCl4-induced hepatic fibrosis C57BL/6 mouse model assessed as reduction in ALT level at 500 ug/kg, po administered daily for 2 weeks; format: functional, organism-based
Mus musculus [19] = experiment: Anti-fibrotic activity in CCl4-induced hepatic fibrosis C57BL/6 mouse model assessed as decrease in Ctgf mRNA level in liver at 500 ug/kg, po administered daily for 2 weeks by qPCR analysis; format: functional, organism-based
Mus musculus [20] = experiment: Anti-fibrotic activity in CCl4-induced hepatic fibrosis C57BL/6 mouse model assessed as decrease in Fn mRNA level in liver at 500 ug/kg, po administered daily for 2 weeks by qPCR analysis; format: functional, organism-based
Mus musculus [21] = experiment: Anti-fibrotic activity in CCl4-induced hepatic fibrosis C57BL/6 mouse model assessed as reduction in alpha-SMA level in liver at 500 ug/kg, po administered daily for 2 weeks by immunofluorescence based analysis; format: functional, organism-based

SMILES: CC(C)(O)CCCOc1cccc(COC(=O)C2=C[C@@H](O)[C@@H](O)[C@H](O)C2)c1
- Activity ([1]; filed as agonist): 49%

SMILES: CC(C)(O)CCCCOc1ccc(C#CC2=C[C@@H](O)[C@@H](O)[C@H](O)C2)c2c1CCCC2
- Activity ([1]; filed as agonist): 50%

SMILES: CCC(O)(CC)CCCn1ccc2c(/C=C/C3=C[C@@H](O)[C@@H](O)[C@H](O)C3)cccc21
- Activity [2]: Active
- Activity ([1]; filed as agonist): 64%

SMILES: CCN(CC)C(=O)COc1ccc(/C=C/C2=C[C@@H](O)[C@@H](O)[C@H](O)C2)c2c1CCCC2
- Activity ([1]; filed as agonist): 56%

SMILES: CC(C)(C)C(=O)COc1ccc(/C=C/C2=C[C@@H](O)[C@@H](O)[C@H](O)C2)c2c1CCCC2
- Activity ([1]; filed as agonist): 68%

SMILES: OC(COc1ccc(/C=C/C2=C[C@@H](O)[C@@H](O)[C@H](O)C2)c2c1CCCC2)c1ccccc1 (stereo partly drawn)
- inhibition (LX-2 [3]): inactive
- inhibition (LX-2 [4]): inactive
- inhibition (LX-2 [5]): inactive
- Activity [1]: 77%
- inhibition (LX-2 [6]): inactive

SMILES: CC(C)(C)c1ccc(C(=O)COc2ccc(/C=C/C3=C[C@@H](O)[C@@H](O)[C@H](O)C3)c3c2CCCC3)cc1
- Activity ([1]; filed as agonist): 88%

SMILES: CCC(O)(CC)COc1ccc(/C=C/C2=C[C@@H](O)[C@@H](O)[C@H](O)C2)c2c1CCCC2
- Activity ([1]; filed as agonist): 61%

SMILES: CCC(O)(CC)c1ccc(-c2ccc(COC(=O)C3=C[C@@H](O)[C@@H](O)[C@H](O)C3)s2)c(C)c1
- inhibition (LX-2 [3]): Active
- Activity [7]: Active
- Activity [2]: Active
- inhibition (LX-2 [4]): Active
- inhibition (LX-2 [5]): Active
- Activity ([1]; filed as agonist): 60%
- inhibition (LX-2 [6]): Active

SMILES: CCC(OC(=O)C1=C[C@@H](O)[C@@H](O)[C@H](O)C1)c1cccc(OCCCC(O)(CC)CC)c1 (stereo partly drawn)
- Activity (Mus musculus [8]): Active
- Activity (Mus musculus [9]): Active
- Activity (Mus musculus [10]): Active
- inhibition (LX-2 [11]): inactive
- inhibition (LX-2 [12]): inactive
- inhibition (LX-2 [3]): Active
- Activity [7]: Active
- Activity (Mus musculus [13]): Active
- Activity (Mus musculus [14]): Active
- Activity [2]: Active
- Activity (Mus musculus [15]): Active
- Activity (Mus musculus [16]): Active
- Activity (Mus musculus [17]): Active
- Activity (Mus musculus [18]): Active
- Activity (Mus musculus [19]): Active
- inhibition (LX-2 [4]): Active
- Activity (Mus musculus [20]): Active
- inhibition (LX-2 [5]): Active
- Activity (Mus musculus [21]): Active
- Activity ([1]; filed as agonist): 84%
- inhibition (LX-2 [6]): Active

SMILES: CCC(O)(CC)CCCOc1cccc2c1CCCC2OC(=O)C1=C[C@@H](O)[C@@H](O)[C@H](O)C1 (stereo partly drawn)
- Activity ([1]; filed as agonist): 68%

SMILES: CCn1cc(C(CC)(CC)c2ccc(OCC(O)CO)c(C)c2)cc1C(=O)NCC(C)(C)O (stereo not drawn)
- inhibition (LX-2 [11]): inactive
- inhibition (LX-2 [12]): inactive
- Activity ([1]; filed as agonist): 57%

SMILES: CCCCC(O)(CCCC)CCCOc1cccc2c1CCCC2OC(=O)C1=C[C@@H](O)[C@@H](O)[C@H](O)C1 (stereo partly drawn)
- Activity [1]: 34%

SMILES: CC(OC(=O)C1=C[C@@H](O)[C@@H](O)[C@H](O)C1)c1cccc(OCCCC(C)(C)O)c1 (stereo partly drawn)
- Activity ([1]; filed as agonist): 85%

SMILES: Cc1cc(C(C)(C)O)ccc1-c1ccc(COC(=O)C2=C[C@@H](O)[C@@H](O)[C@H](O)C2)s1
- Activity ([1]; filed as agonist): 71%

SMILES: CC(C)(O)CCCOc1ccc(/C=C/C2=C[C@@H](O)[C@@H](O)[C@H](O)C2)c2c1CCCC2
- Activity ([1]; filed as agonist): 43%

SMILES: CC(C)(O)CCCOc1cccc2c1CCCC2OC(=O)C1=C[C@@H](O)[C@@H](O)[C@H](O)C1 (stereo partly drawn)
- Activity ([1]; filed as agonist): 69%

SMILES: CCC(O)(CC)CCCCOc1ccc(C#CC2=C[C@@H](O)[C@@H](O)[C@H](O)C2)c2c1CCCC2
- Activity ([1]; filed as agonist): 49%

SMILES: CC(C)(O)CCCCOc1ccc(/C=C/C2=C[C@@H](O)[C@@H](O)[C@H](O)C2)c2c1CCCC2
- Activity [1]: 21%

SMILES: CC(C)c1ccc(C(=O)COc2ccc(/C=C/C3=C[C@@H](O)[C@@H](O)[C@H](O)C3)c3c2CCCC3)cc1
- Activity ([1]; filed as agonist): 76%
